Results as given in ChEMBL document CHEMBL3817840, “Discovery of CNS Penetrant CXCR2 Antagonists for the Potential Treatment of CNS Demyelinating Disorders” (ACS Med Chem Lett, 2016).

How the values were obtained:
[1] = target: T1, C-X-C chemokine receptor type 2 (Homo sapiens, UniProt P25025); test: Antagonist activity at human recombinant Gal4-VP16 fused-CXCR2 assessed as inhibition of CXCL1-mediated lactamase reporter gene expression after overnight incubation
T1 sequence (P25025 whole entry): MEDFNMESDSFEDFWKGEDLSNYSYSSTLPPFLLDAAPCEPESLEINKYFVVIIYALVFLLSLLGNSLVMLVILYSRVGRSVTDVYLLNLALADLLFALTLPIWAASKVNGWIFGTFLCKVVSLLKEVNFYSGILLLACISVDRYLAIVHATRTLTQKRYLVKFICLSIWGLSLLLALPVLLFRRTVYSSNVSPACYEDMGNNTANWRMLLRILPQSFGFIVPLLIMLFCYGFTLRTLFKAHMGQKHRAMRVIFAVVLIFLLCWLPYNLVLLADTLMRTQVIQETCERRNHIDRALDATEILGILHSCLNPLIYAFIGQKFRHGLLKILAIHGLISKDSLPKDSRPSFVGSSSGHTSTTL

[2] = (§1) AUC (0 to 4 hrs) in C57BL/6 mouse blood at 2 mg/kg, ip by UPLC/MS/MS analysis; type: ADME, organism-based; parameters: dose 2 mg/kg, time < 4 hr, route intraperitoneal; conditions: C57BL/6, mouse, blood
Brain = test: AUC (0 to 4 hrs) in C57BL/6 mouse brain at 2 mg/kg, ip by UPLC/MS/MS analysis; type: ADME, organism-based; parameters: dose 2 mg/kg, time < 4 hr, route intraperitoneal; conditions: in vivo
[3] = Ratio of drug level in C57BL/6 mouse brain to blood at 2 mg/kg, ip; type: ADME, organism-based; conditions: for Kp: C57BL/6, mouse, brain/blood; for Ratio: mouse, brain, BLD = below limit of detection
[4] = Half life in C57BL/6 mouse at 1 mg/kg, iv; type: ADME, organism-based; conditions: in vivo
[5] = Clearance in C57BL/6 mouse blood at 1 mg/kg, iv; type: ADME, organism-based
[6] = Volume of distribution at steady state in C57BL/6 mouse at 1 mg/kg, iv; type: ADME, organism-based; conditions: in vivo, read-out: Vdss
[7] = Cmax in C57BL/6 mouse at 2 mg/kg, po; type: ADME, organism-based; parameters: dose 2 mg/kg, route oral; conditions: in vivo
Mus musculus = test: Dose normalized AUC (0 to infinity) in C57BL/6 mouse at 2 mg/kg, po; type: ADME, organism-based; conditions: in vivo
[8] = Oral bioavailability in C57BL/6 mouse at 2 mg/kg; type: ADME, organism-based; conditions: in vivo
[9] = Fraction unbound in human plasma; type: ADME, cell-free
Cytochrome P450 1A2 = target: T2, Cytochrome P450 1A2 (Homo sapiens, UniProt P05177); test: Inhibition of CYP1A2 (unknown origin); type: ADME
T2 sequence (P05177 whole entry): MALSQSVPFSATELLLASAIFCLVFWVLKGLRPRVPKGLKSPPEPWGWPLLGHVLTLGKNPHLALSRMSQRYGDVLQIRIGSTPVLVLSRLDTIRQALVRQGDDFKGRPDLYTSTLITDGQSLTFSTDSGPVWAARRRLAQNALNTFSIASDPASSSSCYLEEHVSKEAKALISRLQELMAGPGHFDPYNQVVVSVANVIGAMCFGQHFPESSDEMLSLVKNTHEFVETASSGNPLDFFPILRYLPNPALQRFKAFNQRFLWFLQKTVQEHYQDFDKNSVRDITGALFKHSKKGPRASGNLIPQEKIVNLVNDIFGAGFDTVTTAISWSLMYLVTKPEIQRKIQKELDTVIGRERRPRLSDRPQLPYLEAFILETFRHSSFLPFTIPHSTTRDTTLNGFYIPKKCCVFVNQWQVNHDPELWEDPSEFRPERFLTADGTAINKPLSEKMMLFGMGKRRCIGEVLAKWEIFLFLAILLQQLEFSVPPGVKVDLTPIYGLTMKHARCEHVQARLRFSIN

Cytochrome P450 2D6 = Cytochrome P450 2D6 (Homo sapiens, UniProt P10635); test: Inhibition of CYP2D6 (unknown origin); type: ADME
Cytochrome P450 2C19 = Cytochrome P450 2C19 (Homo sapiens, UniProt P33261); test: Inhibition of CYP2C19 (unknown origin); type: ADME
Cytochrome P450 3A4 = Cytochrome P450 3A4 (Homo sapiens, UniProt P08684); test: Inhibition of CYP3A4 (unknown origin); type: ADME
Cytochrome P450 2C9 = Cytochrome P450 2C9 (Homo sapiens, UniProt P11712)
Description: Inhibition of CYP2C9 (unknown origin)

[10] = Stability of the compound assessed as GSH conjugate formation; type: physicochemical
Blood = test: as §1; type: ADME, organism-based; parameters: dose 2 mg/kg, time < 4 hr, route intraperitoneal; conditions: mouse, in vivo, 4 h, BLD = below limit of detection

Cytochrome P450 2C9, sequence (P11712 whole entry): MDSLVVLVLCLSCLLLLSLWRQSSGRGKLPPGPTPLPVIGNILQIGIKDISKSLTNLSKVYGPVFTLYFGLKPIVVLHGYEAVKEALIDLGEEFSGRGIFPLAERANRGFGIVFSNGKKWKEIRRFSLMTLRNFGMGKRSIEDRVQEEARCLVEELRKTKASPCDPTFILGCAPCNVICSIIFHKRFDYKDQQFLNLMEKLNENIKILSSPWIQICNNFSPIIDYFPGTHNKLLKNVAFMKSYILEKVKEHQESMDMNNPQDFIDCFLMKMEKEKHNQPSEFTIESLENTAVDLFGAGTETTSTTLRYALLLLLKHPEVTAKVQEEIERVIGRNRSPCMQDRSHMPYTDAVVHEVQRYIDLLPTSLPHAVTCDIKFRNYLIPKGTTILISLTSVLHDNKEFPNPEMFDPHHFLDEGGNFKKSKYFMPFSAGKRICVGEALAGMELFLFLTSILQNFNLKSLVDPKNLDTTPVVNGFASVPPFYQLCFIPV
Cytochrome P450 3A4, sequence (P08684 whole entry): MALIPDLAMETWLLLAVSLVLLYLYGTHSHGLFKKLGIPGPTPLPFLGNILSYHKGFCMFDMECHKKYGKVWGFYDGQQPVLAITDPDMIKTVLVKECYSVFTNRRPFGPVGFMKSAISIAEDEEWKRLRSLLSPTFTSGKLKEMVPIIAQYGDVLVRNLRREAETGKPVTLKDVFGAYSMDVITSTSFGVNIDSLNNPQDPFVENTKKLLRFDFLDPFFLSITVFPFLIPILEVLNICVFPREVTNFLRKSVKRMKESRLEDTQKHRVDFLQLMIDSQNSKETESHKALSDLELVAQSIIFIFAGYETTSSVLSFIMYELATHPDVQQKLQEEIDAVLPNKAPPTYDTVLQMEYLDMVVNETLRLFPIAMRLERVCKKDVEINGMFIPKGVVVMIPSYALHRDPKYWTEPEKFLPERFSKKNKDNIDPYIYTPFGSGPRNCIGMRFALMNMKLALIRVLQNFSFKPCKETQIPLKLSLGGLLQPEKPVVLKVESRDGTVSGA
Cytochrome P450 2C19, sequence (P33261 whole entry): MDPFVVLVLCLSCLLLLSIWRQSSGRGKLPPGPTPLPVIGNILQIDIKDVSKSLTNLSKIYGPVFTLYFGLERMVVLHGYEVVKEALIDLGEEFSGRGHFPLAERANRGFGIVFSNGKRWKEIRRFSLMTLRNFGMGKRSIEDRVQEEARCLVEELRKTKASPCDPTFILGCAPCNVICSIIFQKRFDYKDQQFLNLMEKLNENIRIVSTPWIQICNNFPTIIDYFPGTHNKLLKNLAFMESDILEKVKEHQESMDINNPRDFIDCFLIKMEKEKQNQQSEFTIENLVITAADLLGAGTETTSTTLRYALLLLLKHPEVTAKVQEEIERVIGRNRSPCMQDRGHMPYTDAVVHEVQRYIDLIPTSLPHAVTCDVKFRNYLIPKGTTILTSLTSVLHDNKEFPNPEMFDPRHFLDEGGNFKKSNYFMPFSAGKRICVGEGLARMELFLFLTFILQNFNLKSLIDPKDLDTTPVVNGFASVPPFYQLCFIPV
Cytochrome P450 2D6, sequence (P10635 whole entry): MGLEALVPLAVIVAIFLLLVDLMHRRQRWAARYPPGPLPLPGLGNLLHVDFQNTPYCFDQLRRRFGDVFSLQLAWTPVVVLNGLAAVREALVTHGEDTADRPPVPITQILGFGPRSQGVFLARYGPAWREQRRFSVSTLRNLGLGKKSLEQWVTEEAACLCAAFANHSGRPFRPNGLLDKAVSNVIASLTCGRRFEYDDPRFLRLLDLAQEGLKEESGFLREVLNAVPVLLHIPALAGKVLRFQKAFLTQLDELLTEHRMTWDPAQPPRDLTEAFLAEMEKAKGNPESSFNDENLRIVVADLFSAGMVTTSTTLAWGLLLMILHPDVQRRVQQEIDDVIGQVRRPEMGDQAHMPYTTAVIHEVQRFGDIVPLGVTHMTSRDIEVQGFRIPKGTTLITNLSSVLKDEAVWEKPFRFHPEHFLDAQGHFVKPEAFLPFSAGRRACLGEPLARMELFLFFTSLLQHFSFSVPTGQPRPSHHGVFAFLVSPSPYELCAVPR

IC50 [1]	AUC(0-t) at 4 h [2]	AUC (Brain)	Kp [3]	further results	Compound
0.794 nM	303 ng·h/mL	151 ng·h/g	0.5	–	CN1CCN(S(=O)(=O)c2c(Cl)ccc(NC(=O)Nc3cccc(Cl)c3Cl)c2O)CC1
1.26 nM	684 ng·h/mL	244 ng·h/g	–	half-life [4]: 2.3 h; clearance [5]: 30.8 mL/min/kg; Vd [6]: 2.82 L/kg; Cmax [7]: 125 ng/mL; AUC/dose (Mus musculus): 212 ng·h/mL/mg/kg; bioavailability [8]: 41%; Fu [9]: 0.036%; IC50 (Cytochrome P450 1A2): > 10000 nM; IC50 (Cytochrome P450 2D6): > 10000 nM; IC50 (Cytochrome P450 2C19): > 10000 nM; IC50 (Cytochrome P450 3A4): > 10000 nM; IC50 (Cytochrome P450 2C9): > 10000 nM	CCN1CCC(S(=O)(=O)c2c(Cl)ccc(NC(=O)Nc3cccc(F)c3Cl)c2O)CC1
10 nM	519 ng·h/mL	73 ng·h/g	0.14	–	C[C@@H]1CN(S(=O)(=O)c2c(Cl)ccc(NC(=O)Nc3cccc(Cl)c3Cl)c2O)C[C@H](C)O1
1.58 nM	52.9 ng·h/mL	99 ng·h/g	1.87	–	CC(C)N1CCN(S(=O)(=O)c2c(Cl)ccc(NC(=O)Nc3cccc(F)c3Cl)c2O)CC1
3.98 nM	279 ng·h/mL	96 ng·h/g	0.35	–	C[C@@H]1CN(S(=O)(=O)c2c(Cl)ccc(NC(=O)Nc3cccc(F)c3Cl)c2O)C[C@H](C)O1
1.26 nM	577 ng·h/mL	164 ng·h/g	0.28	half-life [4]: 1.9 h; clearance [5]: 15.4 mL/min/kg; Vd [6]: 1.72 L/kg; Cmax [7]: 216 ng/mL; AUC/dose (Mus musculus): 271 ng·h/mL/mg/kg; bioavailability [8]: 26%; Fu [9]: 0.021%; IC50 (Cytochrome P450 1A2): > 10000 nM; IC50 (Cytochrome P450 2D6): > 10000 nM; IC50 (Cytochrome P450 2C19): > 10000 nM; IC50 (Cytochrome P450 3A4): > 10000 nM; Stability [10]: Stable; IC50 (Cytochrome P450 2C9): > 10000 nM	CN1CC[C@H](S(=O)(=O)c2c(Cl)ccc(NC(=O)Nc3cccc(Cl)c3Cl)c2O)C1
0.794 nM	290 ng·h/mL	37 ng·h/g	0.13	–	O=C(Nc1ccc(Cl)c(S(=O)(=O)C2CCOCC2)c1O)Nc1cccc(Cl)c1Cl
0.316 nM	–	–	–	AUC (Blood): BLD; AUC (Brain; BLD = below limit of detection): BLD; Ratio [3]: BLD	O=C(Nc1ccc(Cl)c(S(=O)(=O)C2CCCCC2)c1O)Nc1cccc(F)c1Cl
0.501 nM	256 ng·h/mL	73.9 ng·h/g	0.29	–	CCS(=O)(=O)c1c(Cl)ccc(NC(=O)Nc2cccc(Cl)c2Cl)c1O
0.501 nM	284 ng·h/mL	59 ng·h/g	0.21	–	O=C(Nc1ccc(Cl)c(S(=O)(=O)C2CCOC2)c1O)Nc1cccc(Cl)c1Cl (centres undefined)
0.316 nM	2.98 ng·h/mL	1.26 ng·h/g	0.42	–	O=C(Nc1ccc(Cl)c(S(=O)(=O)C2CCCC2)c1O)Nc1cccc(F)c1Cl
1 nM	–	–	–	AUC (Blood): BLD; AUC (Brain; BLD = below limit of detection): BLD; Ratio [3]: BLD	O=C(Nc1ccc(Cl)c(C(=O)N2CCCC2)c1O)Nc1cccc(F)c1Cl
0.501 nM	432 ng·h/mL	136 ng·h/g	0.32	–	CN1CC[C@H](S(=O)(=O)c2c(Cl)ccc(NC(=O)Nc3cccc(F)c3Cl)c2O)C1
0.631 nM	290 ng·h/mL	180 ng·h/g	0.62	–	CC(C)S(=O)(=O)c1c(Cl)ccc(NC(=O)Nc2cccc(Cl)c2Cl)c1O
1 nM	189 ng·h/mL	128 ng·h/g	0.67	–	CCN1CCN(S(=O)(=O)c2c(Cl)ccc(NC(=O)Nc3cccc(F)c3Cl)c2O)CC1
2 nM	1390 ng·h/mL	111 ng·h/g	0.08	–	CN1CCC2(CC1)CC(S(=O)(=O)c1c(Cl)ccc(NC(=O)Nc3cccc(F)c3Cl)c1O)C2
0.316 nM	103 ng·h/mL	28.4 ng·h/g	0.28	–	O=C(Nc1ccc(Cl)c(S(=O)(=O)C2CCC2)c1O)Nc1cccc(F)c1Cl
0.398 nM	1480 ng·h/mL	69.3 ng·h/g	0.05	–	CN1CCC2(CCC(S(=O)(=O)c3c(Cl)ccc(NC(=O)Nc4cccc(F)c4Cl)c3O)CC2)CC1
0.398 nM	1050 ng·h/mL	22.9 ng·h/g	0.02	–	CN1CC2(CC(S(=O)(=O)c3c(Cl)ccc(NC(=O)Nc4cccc(F)c4Cl)c3O)C2)C1
0.794 nM	176 ng·h/mL	83 ng·h/g	0.47	–	CN1CCN(S(=O)(=O)c2c(Cl)ccc(NC(=O)Nc3cccc(F)c3Cl)c2O)CC1
0.501 nM	198 ng·h/mL	95 ng·h/g	0.48	–	CC(C)S(=O)(=O)c1c(Cl)ccc(NC(=O)Nc2cccc(F)c2Cl)c1O
0.501 nM	–	–	–	AUC (Blood): BLD; AUC (Brain; BLD = below limit of detection): BLD; Ratio [3]: BLD	O=C(Nc1ccc(Cl)c(C(=O)N2CCCCC2)c1O)Nc1cccc(F)c1Cl
0.501 nM	355 ng·h/mL	369 ng·h/g	1.04	–	CC(C)(C)S(=O)(=O)c1c(Cl)ccc(NC(=O)Nc2cccc(F)c2Cl)c1O
2 nM	904 ng·h/mL	29.8 ng·h/g	0.03	–	O=C(Nc1ccc(Cl)c(S(=O)(=O)C2CCNCC2)c1O)Nc1cccc(Cl)c1Cl
0.501 nM	463 ng·h/mL	99.1 ng·h/g	0.21	–	CN1CCC[C@H](S(=O)(=O)c2c(Cl)ccc(NC(=O)Nc3cccc(F)c3Cl)c2O)CC1
